Where two headings read alike, the source gives them in different places.
Columns and labels:
Format in all cases: in vivo
wild oat (Avena fatua) = assay: Test B postemergence; conditions: Avena fatua, post-emergence
Procedure, shortened: (§1)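 Pre: compound (non-phytotoxic solvent + surfactant) applied to freshly planted seeds. Post: same formulation sprayed on 2–18 cm plants, 1- to 4-leaf. Readout: visual control rating 0–100 vs controls, 13–15 d, greenhouse.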

[1] = test system: blackgrass (Alopecurus myosuroides); assay: Test B postemergence; conditions: Alopecurus myosuroides, post-emergence
Procedure, shortened: as §1

[2] = test system: barnyardgrass (Echinochloa crus-galli); assay: Test B flooded paddy test; conditions: Echinochloa crus-galli, Flood, 1000 g ai/ha; scale 0 (no effect) to 100 (complete control); read-out: Plant response rating, Barnyardgrass
Procedure, shortened: (§2)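 Visual injury scoring (0 = no effect, 100 = complete control) versus controls made 13 to 15 days after treatment in the greenhouse. Test species were grown in flooded paddy to the 2-leaf stage: rice, barnyardgrass, umbrella sedge, duck salad.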

[3] = test system: duck salad (Heteranthera limosa); assay: Test B flooded paddy test; conditions: Heteranthera limosa, Flood, 1000 g ai/ha; scale 0 to 100; read-out: Plant response rating, Ducksalad
Procedure, shortened: as §2

rice (Oryza sativa) = assay: Test B flooded paddy test; conditions: Oryza sativa, Flood, 1000 g ai/ha; scale 0 to 100; read-out: Plant response rating, Rice
Procedure, shortened: as §2

[4] = test system: umbrella sedge (Cyperus difformis); assay: Test B flooded paddy test; conditions: Cyperus difformis, Flood, 1000 g ai/ha; scale 0 to 100; read-out: Plant response rating, Sedge, Umbrella
Procedure, shortened: as §2

[5] = test system: crabgrass (Digitaria sanguinalis); assay: Test B pre/postemergence; conditions: Digitaria sanguinalis; for pest or weed control at 125 g/ha: 125 g ai/ha; for pest or weed control at 500 g/ha: 500 g ai/ha
Procedure, shortened: as §1

[6] = test system: barnyardgrass (Echinochloa crus-galli); assay: Test B pre/postemergence; conditions: Echinochloa crus-galli; for pest or weed control at 125 g/ha: 125 g ai/ha; for pest or weed control at 500 g/ha: 500 g ai/ha
Procedure, shortened: as §1

[7] = test system: pigweed (Amaranthus retroflexus); assay: Test B pre/postemergence; conditions: Amaranthus retroflexus; for pest or weed control at 125 g/ha: 125 g ai/ha; for pest or weed control at 500 g/ha: 500 g ai/ha
Procedure, shortened: as §1

[8] = test system: lambsquarters (Chenopodium album); assay: Test B pre/postemergence; conditions: Chenopodium album; for pest or weed control at 125 g/ha: 125 g ai/ha; for pest or weed control at 500 g/ha: 500 g ai/ha
Procedure, shortened: as §1

[9] = test system: cocklebur (Xanthium strumarium); assay: Test B pre/postemergence; conditions: Xanthium strumarium; for pest or weed control at 125 g/ha: 125 g ai/ha; for pest or weed control at 500 g/ha: 500 g ai/ha
Procedure, shortened: as §1

corn (Zea mays) = assay: Test B pre/postemergence; conditions: Zea mays
Procedure, shortened: as §1

[10] = test system: wheat (Triticum aestivum); assay: Test B pre/postemergence; conditions: Triticum aestivum; for plant injury at 125 g/ha: 125 g ai/ha; for plant injury at 500 g/ha: 500 g ai/ha
Procedure, shortened: as §1

[11] = test system: morningglory (Ipomoea coccinea); assay: Test B pre/postemergence; conditions: Ipomoea; for pest or weed control at 125 g/ha: 125 g ai/ha; for pest or weed control at 500 g/ha: 500 g ai/ha
Procedure, shortened: as §1

[12] = test system: velvetleaf (Abutilon theophrasti); assay: Test B pre/postemergence; conditions: Abutilon theophrasti; for pest or weed control at 125 g/ha: 125 g ai/ha; for pest or weed control at 500 g/ha: 500 g ai/ha
Procedure, shortened: as §1

[13] = test system: Surinam grass (Brachiaria decumbens); assay: Test B pre/postemergence; conditions: Urochloa decumbens; for pest or weed control at 125 g/ha: 125 g ai/ha; for pest or weed control at 500 g/ha: 500 g ai/ha
Procedure, shortened: as §1

[14] = test system: giant foxtail (Setaria faberii); assay: Test B pre/postemergence; conditions: Setaria faberi; for pest or weed control at 125 g/ha: 125 g ai/ha; for pest or weed control at 500 g/ha: 500 g ai/ha
Procedure, shortened: as §1

[15] = pre-emergence, Preemergence, scale 0 to 100 (0 no effect, 100 complete control), read-out: Plant response rating, Wheat

`COC(=O)c1nc(C2CC2)nc(NO)c1Br` [Compound 35] gave a pest or weed control at 125 g/ha (wild oat (Avena fatua); 125 g ai/ha, scale 0 to 100 (0 no effect, 100 complete control), read-out: Oat, Wild plant response rating) of 60%, a pest or weed control at 500 g/ha (wild oat (Avena fatua); 500 g ai/ha, scale 0 to 100, read-out: Plant response rating, Oat, Wild) of 60% and a pest or weed control at 125 g/ha ([1]; 125 g ai/ha, scale 0 to 100 (0 no effect, 100 complete control), read-out: Blackgrass plant response rating) of 60%. The pest or weed control at 500 g/ha ([1]; 500 g ai/ha, scale 0 to 100, read-out: Plant response rating, Blackgrass) was 70%, the pest or weed control at 1000 g/ha [2] was 0% and the pest or weed control at 1000 g/ha [3] was 0%. It also gave a plant injury at 1000 g/ha (rice (Oryza sativa)) of 0%, a pest or weed control at 1000 g/ha [4] of 0% and a pest or weed control at 125 g/ha ([5]; post-emergence, Postemergence, scale 0 to 100 (0 no effect, 100 complete control), read-out: Crabgrass plant response rating) of 20%. For the same molecule, the pest or weed control at 500 g/ha ([5]; post-emergence, Postemergence, scale 0 to 100, read-out: Plant response rating, Crabgrass) was 50%, the pest or weed control at 125 g/ha ([5]; pre-emergence, Preemergence, scale 0 to 100 (0 no effect, 100 complete control), read-out: Plant response rating, Crabgrass) was 30% and the pest or weed control at 500 g/ha ([5]; pre-emergence, Preemergence, scale 0 to 100 (0 no effect, 100 complete control), read-out: Crabgrass plant response rating) was 80%. It also gave a pest or weed control at 125 g/ha ([6]; post-emergence, Postemergence, scale 0 to 100 (0 no effect, 100 complete control), read-out: Barnyardgrass plant response rating) of 40%, a pest or weed control at 500 g/ha ([6]; post-emergence, Postemergence, scale 0 to 100, read-out: Plant response rating, Barnyardgrass) of 90% and a pest or weed control at 125 g/ha ([6]; pre-emergence, Preemergence, scale 0 to 100 (0 no effect, 100 complete control), read-out: Plant response rating, Barnyardgrass) of 10%. The pest or weed control at 500 g/ha ([6]; pre-emergence, Preemergence, scale 0 to 100 (0 no effect, 100 complete control), read-out: Barnyardgrass plant response rating) was 80%, the pest or weed control at 125 g/ha ([7]; post-emergence, Postemergence, scale 0 to 100 (0 no effect, 100 complete control), read-out: Pigweed plant response rating) was 70% and the pest or weed control at 500 g/ha ([7]; post-emergence, Postemergence, scale 0 to 100, read-out: Plant response rating, Pigweed) was 100%. For the same molecule, the pest or weed control at 125 g/ha ([7]; pre-emergence, Preemergence, scale 0 to 100 (0 no effect, 100 complete control), read-out: Plant response rating, Pigweed) was 80%, the pest or weed control at 500 g/ha ([7]; pre-emergence, Preemergence, scale 0 to 100 (0 no effect, 100 complete control), read-out: Pigweed plant response rating) was 100% and the pest or weed control at 125 g/ha ([8]; post-emergence, Postemergence, scale 0 to 100 (0 no effect, 100 complete control), read-out: Lambsquarters plant response rating) was 90%. For the same molecule, the pest or weed control at 500 g/ha ([8]; post-emergence, Postemergence, scale 0 to 100, read-out: Plant response rating, Lambsquarters) was 100%, the pest or weed control at 125 g/ha ([8]; pre-emergence, Preemergence, scale 0 to 100 (0 no effect, 100 complete control), read-out: Plant response rating, Lambsquarters) was 90% and the pest or weed control at 500 g/ha ([8]; pre-emergence, Preemergence, scale 0 to 100 (0 no effect, 100 complete control), read-out: Lambsquarters plant response rating) was 100%. It also gave a pest or weed control at 125 g/ha ([9]; post-emergence, Postemergence, scale 0 to 100 (0 no effect, 100 complete control), read-out: Cocklebur plant response rating) of 30%, a pest or weed control at 500 g/ha ([9]; post-emergence, Postemergence, scale 0 to 100, read-out: Plant response rating, Cocklebur) of 100% and a pest or weed control at 125 g/ha ([9]; pre-emergence, Preemergence, scale 0 to 100 (0 no effect, 100 complete control), read-out: Plant response rating, Cocklebur) of 60%. It also gave a pest or weed control at 500 g/ha ([9]; pre-emergence, Preemergence, scale 0 to 100 (0 no effect, 100 complete control), read-out: Cocklebur plant response rating) of 90%, a plant injury at 125 g/ha (corn (Zea mays); post-emergence, Postemergence, 125 g ai/ha, scale 0 to 100 (0 no effect, 100 complete control), read-out: Corn plant response rating) of 0% and a Corn plant response rating (crop injury, 0 = no effect, 100 = complete kill) at 500 g/ha (corn (Zea mays); post-emergence, Postemergence, 500 g ai/ha, scale 0 to 100) of 60%. For the same molecule, the Corn plant response rating (crop injury, 0 = no effect, 100 = complete kill) at 125 g/ha (corn (Zea mays); pre-emergence, Preemergence, 125 g ai/ha, scale 0 to 100 (0 no effect, 100 complete control)) was 0%, the plant injury at 500 g/ha (corn (Zea mays); pre-emergence, Preemergence, 500 g ai/ha, scale 0 to 100 (0 no effect, 100 complete control), read-out: Corn plant response rating) was 50% and the plant injury at 125 g/ha ([10]; post-emergence, Postemergence, scale 0 to 100 (0 no effect, 100 complete control), read-out: Wheat plant response rating) was 20%. It also gave a plant injury at 500 g/ha ([10]; post-emergence, Postemergence, scale 0 to 100, read-out: Plant response rating, Wheat) of 60%, a plant injury at 125 g/ha [10, 15] of 20% and a plant injury at 500 g/ha [10, 15] of 50%. It also gave a pest or weed control at 125 g/ha ([11]; post-emergence, Postemergence, scale 0 to 100 (0 no effect, 100 complete control), read-out: Morningglory plant response rating) of 70%, a pest or weed control at 500 g/ha ([11]; post-emergence, Postemergence, scale 0 to 100, read-out: Plant response rating, Morningglory) of 100% and a pest or weed control at 125 g/ha ([11]; pre-emergence, Preemergence, scale 0 to 100 (0 no effect, 100 complete control), read-out: Plant response rating, Morningglory) of 70%. For the same molecule, the pest or weed control at 500 g/ha ([11]; pre-emergence, Preemergence, scale 0 to 100 (0 no effect, 100 complete control), read-out: Morningglory plant response rating) was 100%, the pest or weed control at 125 g/ha ([12]; post-emergence, Postemergence, scale 0 to 100 (0 no effect, 100 complete control), read-out: Velvetleaf plant response rating) was 50% and the pest or weed control at 500 g/ha ([12]; post-emergence, Postemergence, scale 0 to 100, read-out: Plant response rating, Velvetleaf) was 90%. For the same molecule, the pest or weed control at 125 g/ha ([12]; pre-emergence, Preemergence, scale 0 to 100 (0 no effect, 100 complete control), read-out: Plant response rating, Velvetleaf) was 70%, the pest or weed control at 500 g/ha ([12]; pre-emergence, Preemergence, scale 0 to 100 (0 no effect, 100 complete control), read-out: Velvetleaf plant response rating) was 90% and the pest or weed control at 125 g/ha ([13]; post-emergence, Postemergence, scale 0 to 100 (0 no effect, 100 complete control), read-out: Surinam Grass plant response rating) was 20%. It also gave a pest or weed control at 500 g/ha ([13]; post-emergence, Postemergence, scale 0 to 100, read-out: Plant response rating, Surinam Grass) of 80%, a pest or weed control at 125 g/ha ([13]; pre-emergence, Preemergence, scale 0 to 100 (0 no effect, 100 complete control), read-out: Plant response rating, Surinam Grass) of 10% and a pest or weed control at 500 g/ha ([13]; pre-emergence, Preemergence, scale 0 to 100 (0 no effect, 100 complete control), read-out: Surinam Grass plant response rating) of 60%. For the same molecule, the pest or weed control at 125 g/ha ([14]; post-emergence, Postemergence, scale 0 to 100 (0 no effect, 100 complete control), read-out: Foxtail, Giant plant response rating) was 10%, the pest or weed control at 500 g/ha ([14]; post-emergence, Postemergence, scale 0 to 100, read-out: Plant response rating, Foxtail, Giant) was 60% and the pest or weed control at 125 g/ha ([14]; pre-emergence, Preemergence, scale 0 to 100 (0 no effect, 100 complete control), read-out: Plant response rating, Foxtail, Giant) was 0%. For the same molecule, the pest or weed control at 500 g/ha ([14]; pre-emergence, Preemergence, scale 0 to 100 (0 no effect, 100 complete control), read-out: Foxtail, Giant plant response rating) was 70%.

Source: patent US8802597B2, “Herbicidal pyrimidines” (E I du Pont de Nemours and Company, priority 2003, dated 2014)
